Active and inactive are the calls of the source.
Assays:
[1] = biological target: Potassium voltage-gated channel subfamily KQT member 2 (Rattus norvegicus, UniProt O88943); test: retigabine-insensitive KCNQ2 potentiators, concentration-response, dose response, cell-based, retigabine-insensitive compounds (AID 2654); type: functional
[2] = biological target: Sphingosine 1-phosphate receptor 4 (Homo sapiens, UniProt O95977); test: S1P4 receptor agonists, human, late-stage follow-up, cell-based, fluorescence, synthesized compounds (AID 463107); type: functional
[3] = growth suppression of PTEN-null colon cells, dose response, cell-based, HCT116 PTEN knockout (AID 1047); type: functional;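 also: HCT116 colon tumor cells with PTEN knocked out; cells exposed to compound for 60 hours before readout; potency for loss of cell viability measured by luminescence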
[4] = biological target: T1, Kappa-type opioid receptor (Homo sapiens, UniProt P41145); type: functional
Beta-galactosidase [5] = biological target: T2, Beta-galactosidase (Escherichia coli, UniProt Q8VNN2); type: functional
[6] = growth suppression of beta-catenin-knockout colon cells, dose response, cell-based, HCT116, human colon tumor (AID 1045); type: functional;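 also: HCT116 colon tumor cells with beta catenin knocked out; cells exposed to compound for 60 hours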
[7] = biological target: T1, Kappa-type opioid receptor; type: functional; remark: listed apart in the source
[8] = Fluorescence-based cell-based high throughput dose response assay for inhibitors of the interaction of nucleotide-binding oligomerization domain containing 2 (NOD2) and the receptor-interacting serine-threonine kinase 2 (RIPK2).; type: functional; details: Homo sapiens
[9] = biological target: Complement C1s subcomponent (Homo sapiens, UniProt P09871); test: Complement C1s ELISA. [Related pubchem assays: 538, 787 ]; type: functional
Coagulation factor XII = biological target: T3, Coagulation factor XII (Homo sapiens, UniProt P00748); test: FXIIa inhibitor potency, concentration-response, biochemical (AID 716); type: functional
T3 sequence (P00748 whole entry): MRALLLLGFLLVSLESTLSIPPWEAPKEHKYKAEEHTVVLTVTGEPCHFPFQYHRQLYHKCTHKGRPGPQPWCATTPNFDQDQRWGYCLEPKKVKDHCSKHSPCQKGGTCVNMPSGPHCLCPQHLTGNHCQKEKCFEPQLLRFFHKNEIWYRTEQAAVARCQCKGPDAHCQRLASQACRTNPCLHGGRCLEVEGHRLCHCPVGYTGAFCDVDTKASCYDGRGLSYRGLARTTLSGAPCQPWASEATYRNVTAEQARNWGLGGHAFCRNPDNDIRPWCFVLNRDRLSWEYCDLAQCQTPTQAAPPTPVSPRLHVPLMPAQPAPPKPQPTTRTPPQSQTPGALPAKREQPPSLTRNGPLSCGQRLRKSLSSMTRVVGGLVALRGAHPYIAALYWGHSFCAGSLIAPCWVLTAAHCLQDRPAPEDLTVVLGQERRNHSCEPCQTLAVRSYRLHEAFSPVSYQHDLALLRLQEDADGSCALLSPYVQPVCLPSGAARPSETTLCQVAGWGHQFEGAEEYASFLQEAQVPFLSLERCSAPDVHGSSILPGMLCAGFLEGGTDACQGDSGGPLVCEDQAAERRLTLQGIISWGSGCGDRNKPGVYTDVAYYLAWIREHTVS

[10] = biological target: Voltage-dependent T-type calcium channel subunit alpha-1H (Homo sapiens, UniProt O95180); test: Cav3.2 T-type channel inhibitors, cell-based, synthetic library set 1, calcium flux (AID 493022); type: functional
[11] = biological target: DNA dC->dU-editing enzyme APOBEC-3A (Homo sapiens, UniProt P31941); test: APOBEC3A DNA deaminase inhibitors, dose response, biochemical (AID 504722); type: functional
[12] = biological target: DNA dC->dU-editing enzyme APOBEC-3G (Homo sapiens, UniProt Q9HC16); test: Dose Response confirmation of small molecule APOBEC3G DNA Deaminase Inhibitors via a fluorescence-based single-stranded DNA deaminase assay. [Related pubchem assays (depositor defined):AID493012, AID493028]; type: functional
Beta-galactosidase [13] = biological target: T2, Beta-galactosidase; test: beta-galactosidase enzyme inhibitors and activators, dose response, artefact control for CCR6 antagonist project, biochemical, E. coli enzyme, set 3 (AID 504712); type: functional
[14] = biological target: DNA (cytosine-5)-methyltransferase 1 (Homo sapiens, UniProt P26358); test: DNMT1 methyltransferase inhibitors, confirmation, biochemical, fluorescent molecular beacon (AID 602386); type: functional
[15] = biological target: T4, Small ubiquitin-related modifier 2 (Homo sapiens, UniProt P61956); test: SUMO2–SIM peptide binding inhibitors, dose response, selectivity assay for SUMO1 interaction inhibitor project, biochemical, fluorescence polarization, uHTS hits (AID 624385); type: functional; details: read-out: IC50_Mean
[16] = biological target: T5, Small ubiquitin-related modifier 1 (Homo sapiens, UniProt P63165); test: inhibitors of SUMO1 peptide binding, dose response, biochemical, fluorescence polarization, uHTS hits (AID 624382); type: functional; details: read-out: IC50_Mean
[17] = biological target: T6, Probable nicotinate-nucleotide adenylyltransferase (Staphylococcus aureus (strain N315), UniProt P65502); type: functional, Staphylococcus aureus subsp. aureus N315;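 as to IC50 Mean: confirmatory dose-response retesting of NadD inhibitor hits first found in an ultra-high-throughput screen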
[18] = biological target: T6, Probable nicotinate-nucleotide adenylyltransferase; type: functional, Staphylococcus aureus subsp. aureus N315; details: read-out: IC50_Mean
[19] = biological target: T4, Small ubiquitin-related modifier 2; test: inhibitors of SUMO2 protein-protein interaction, dose response, selectivity assay for SUMO1 interaction inhibitor project, biochemical, FRET, human SUMO2, uHTS hits (AID 624384); type: functional; details: read-out: IC50_Mean
[20] = biological target: T5, Small ubiquitin-related modifier 1; test: inhibitors of SUMO1 partner interactions, dose response, biochemical, FRET (AID 624383); type: functional; details: read-out: IC50_Mean
[21] = inhibitors of intracellular T. cruzi replication, confirmation, NIH3T3 host cells, beta-gal luminescence (AID 2044); type: functional, cell-based;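 also: intracellular parasites grown in NIH/3T3 mouse fibroblasts as host cells; luminescent beta-galactosidase reporter signal from transgenic T. cruzi replicating inside host cells; inhibitors lower the luminescence signal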
[22] = cytotoxicity toward NIH3T3 fibroblasts, dose response, counter-screen, cell-based, ATP luminescence, mouse fibroblasts (AID 2010); type: functional;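 also: cells exposed to compound for about 90 hours before reading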
[23] = THP-1 cell cytotoxicity, dose response, cytotoxicity control for non-replicating M. tuberculosis project (AID 489025); type: functional
[24] = HepG2 cell cytotoxicity, dose response, cytotoxicity control for non-replicating M. tuberculosis project (AID 489018); type: functional; details: Mycobacterium tuberculosis
[25] = Vero E6 cell cytotoxicity, dose response, cytotoxicity control for non-replicating M. tuberculosis project, secondary assay (AID 492998); type: functional, VeroE6; details: Vero C1008
cells = type: functional
INS1 = test: beta cell apoptosis inhibitors, cytokine rescue, dose response, luminescence, retest (AID 449756); type: functional, cell-based; details: Rattus norvegicus;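 also: cell death triggered by IL-1 beta plus TNF-alpha plus IFN-gamma mixture; protective hits raise ATP signal compared with cytokine alone wells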
HEK293 [26] = test: NOD1 signaling inhibitors, primary screen, cell-based, luminescence, uHTS (AID 1578); type: functional; details: Homo sapiens
HEK293 [27] = test: cells; type: functional, cell-based; details: Homo sapiens
[28] = biological target: Nucleotide-binding oligomerization domain-containing protein 2 (Homo sapiens, UniProt Q9HC29); test: NOD2 signaling inhibitors, cell-based, luminescence, uHTS, HEK293 (AID 1566); type: functional
HEK293 [29] = test: NOD2 signaling inhibitors in MDP-stimulated cells, cell-based, uHTS, luminescence (AID 2001); type: functional; details: Homo sapiens
HEK293 [30] = test: cells; type: functional, cell-based; details: Homo sapiens; remark: listed apart in the source
[31] = biological target: T7, Replicative DNA helicase DnaB (Mycobacterium tuberculosis, UniProt P9WMR3); test: DnaB intein splicing inhibitors, dose response, biochemical, cell-free fluorescence (AID 449749); type: functional
T7 sequence (P9WMR3 whole entry): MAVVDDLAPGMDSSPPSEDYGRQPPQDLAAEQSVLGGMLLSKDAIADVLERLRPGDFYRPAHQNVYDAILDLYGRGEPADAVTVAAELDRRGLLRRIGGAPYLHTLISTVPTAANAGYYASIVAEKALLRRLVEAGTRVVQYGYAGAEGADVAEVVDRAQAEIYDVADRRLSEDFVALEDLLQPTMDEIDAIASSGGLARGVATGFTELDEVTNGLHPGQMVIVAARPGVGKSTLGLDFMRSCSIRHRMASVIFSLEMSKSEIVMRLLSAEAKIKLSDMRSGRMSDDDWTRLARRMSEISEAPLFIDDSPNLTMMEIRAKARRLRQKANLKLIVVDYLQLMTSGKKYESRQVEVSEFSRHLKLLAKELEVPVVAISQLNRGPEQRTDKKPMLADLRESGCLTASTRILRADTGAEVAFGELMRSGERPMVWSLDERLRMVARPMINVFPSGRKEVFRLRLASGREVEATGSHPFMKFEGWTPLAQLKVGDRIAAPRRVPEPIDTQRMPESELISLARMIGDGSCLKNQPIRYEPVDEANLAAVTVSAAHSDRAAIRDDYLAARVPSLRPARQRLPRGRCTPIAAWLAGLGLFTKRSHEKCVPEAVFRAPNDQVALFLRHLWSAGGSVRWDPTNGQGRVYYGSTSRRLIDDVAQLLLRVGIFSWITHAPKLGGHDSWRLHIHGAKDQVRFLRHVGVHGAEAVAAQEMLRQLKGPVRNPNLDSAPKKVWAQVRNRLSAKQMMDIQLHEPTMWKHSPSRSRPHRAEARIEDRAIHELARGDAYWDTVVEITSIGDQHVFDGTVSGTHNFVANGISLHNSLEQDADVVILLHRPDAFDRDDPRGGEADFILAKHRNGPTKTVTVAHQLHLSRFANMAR

Protein RecA = biological target: T8, Protein RecA (Mycobacterium tuberculosis, UniProt P9WHJ3); test: Fluorescence Cell-Free Homogeneous Dose Retest to Identify Inhibitors of RecA-Intein Splicing Activity. [Related pubchem assays (depositor defined):AID2097, AID2223, AID489010, AID492950]; type: functional
T8 sequence (P9WHJ3 whole entry): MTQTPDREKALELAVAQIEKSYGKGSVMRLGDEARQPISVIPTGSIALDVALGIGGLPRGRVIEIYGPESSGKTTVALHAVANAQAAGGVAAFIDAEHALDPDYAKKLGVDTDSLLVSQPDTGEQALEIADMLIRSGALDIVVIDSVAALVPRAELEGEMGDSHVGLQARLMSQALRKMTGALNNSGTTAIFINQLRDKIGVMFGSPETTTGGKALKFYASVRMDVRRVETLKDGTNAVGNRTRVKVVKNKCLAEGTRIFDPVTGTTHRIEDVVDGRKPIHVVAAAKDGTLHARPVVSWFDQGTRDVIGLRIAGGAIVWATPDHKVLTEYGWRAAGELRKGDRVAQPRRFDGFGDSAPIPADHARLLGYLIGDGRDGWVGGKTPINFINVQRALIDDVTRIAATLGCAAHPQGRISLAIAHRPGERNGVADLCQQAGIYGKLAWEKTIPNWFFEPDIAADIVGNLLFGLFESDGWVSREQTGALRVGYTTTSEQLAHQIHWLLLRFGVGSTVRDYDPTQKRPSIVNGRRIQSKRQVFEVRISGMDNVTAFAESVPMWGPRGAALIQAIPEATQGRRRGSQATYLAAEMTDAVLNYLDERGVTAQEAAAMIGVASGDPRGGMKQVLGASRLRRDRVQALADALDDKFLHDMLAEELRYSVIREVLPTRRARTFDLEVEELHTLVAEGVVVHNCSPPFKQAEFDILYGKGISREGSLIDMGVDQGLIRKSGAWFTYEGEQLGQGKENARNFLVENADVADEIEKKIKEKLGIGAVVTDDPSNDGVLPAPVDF

[32] = biological target: Glutathione S-transferase omega-1 (Homo sapiens, UniProt P78417); test: GSTO1 inhibitor potency, recombinant enzyme, late-stage follow-up, biochemical, SE-Rh probe, in-gel fluorescence, powder samples, set 2 (AID 463142); type: functional
Hexokinase = Hexokinase (Trypanosoma brucei, UniProt Q38C41); test: Confirmation assay for inhibitors of Trypanosoma brucei hexokinase 1-Analogue-first series. [Related pubchem assays (depositor defined):AID1430, AID1632, AID2516, AID2560, AID2579, AID2600, AID449725, AID492951]; type: functional
Chain of Hexokinase (Q38C41 whole entry): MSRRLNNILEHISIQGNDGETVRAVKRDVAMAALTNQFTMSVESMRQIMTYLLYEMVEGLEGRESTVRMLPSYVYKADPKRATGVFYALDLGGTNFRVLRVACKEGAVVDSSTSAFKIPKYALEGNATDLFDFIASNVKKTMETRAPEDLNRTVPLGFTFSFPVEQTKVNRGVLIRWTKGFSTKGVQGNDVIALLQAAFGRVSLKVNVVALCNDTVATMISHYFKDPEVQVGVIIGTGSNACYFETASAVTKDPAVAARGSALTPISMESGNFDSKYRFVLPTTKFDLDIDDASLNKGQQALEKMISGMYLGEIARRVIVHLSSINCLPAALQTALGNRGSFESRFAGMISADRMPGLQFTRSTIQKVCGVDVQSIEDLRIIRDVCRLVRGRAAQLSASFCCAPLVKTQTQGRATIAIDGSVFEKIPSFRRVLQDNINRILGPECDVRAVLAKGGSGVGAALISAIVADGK

T1 sequence (P41145 whole entry): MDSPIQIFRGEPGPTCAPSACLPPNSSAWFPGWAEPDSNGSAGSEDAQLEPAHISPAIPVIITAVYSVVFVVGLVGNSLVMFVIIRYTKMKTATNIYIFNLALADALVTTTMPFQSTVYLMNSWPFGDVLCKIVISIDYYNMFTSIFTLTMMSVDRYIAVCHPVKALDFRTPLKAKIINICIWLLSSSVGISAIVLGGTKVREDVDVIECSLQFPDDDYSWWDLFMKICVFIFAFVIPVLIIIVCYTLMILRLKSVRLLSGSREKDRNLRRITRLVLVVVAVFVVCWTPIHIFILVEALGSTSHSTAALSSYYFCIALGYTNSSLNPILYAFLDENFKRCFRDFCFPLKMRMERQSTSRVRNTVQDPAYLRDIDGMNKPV
T5 sequence (P63165 whole entry): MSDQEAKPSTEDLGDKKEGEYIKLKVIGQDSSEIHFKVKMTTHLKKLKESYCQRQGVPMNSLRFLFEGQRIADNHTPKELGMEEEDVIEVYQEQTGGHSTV
T2 sequence (Q8VNN2 whole entry): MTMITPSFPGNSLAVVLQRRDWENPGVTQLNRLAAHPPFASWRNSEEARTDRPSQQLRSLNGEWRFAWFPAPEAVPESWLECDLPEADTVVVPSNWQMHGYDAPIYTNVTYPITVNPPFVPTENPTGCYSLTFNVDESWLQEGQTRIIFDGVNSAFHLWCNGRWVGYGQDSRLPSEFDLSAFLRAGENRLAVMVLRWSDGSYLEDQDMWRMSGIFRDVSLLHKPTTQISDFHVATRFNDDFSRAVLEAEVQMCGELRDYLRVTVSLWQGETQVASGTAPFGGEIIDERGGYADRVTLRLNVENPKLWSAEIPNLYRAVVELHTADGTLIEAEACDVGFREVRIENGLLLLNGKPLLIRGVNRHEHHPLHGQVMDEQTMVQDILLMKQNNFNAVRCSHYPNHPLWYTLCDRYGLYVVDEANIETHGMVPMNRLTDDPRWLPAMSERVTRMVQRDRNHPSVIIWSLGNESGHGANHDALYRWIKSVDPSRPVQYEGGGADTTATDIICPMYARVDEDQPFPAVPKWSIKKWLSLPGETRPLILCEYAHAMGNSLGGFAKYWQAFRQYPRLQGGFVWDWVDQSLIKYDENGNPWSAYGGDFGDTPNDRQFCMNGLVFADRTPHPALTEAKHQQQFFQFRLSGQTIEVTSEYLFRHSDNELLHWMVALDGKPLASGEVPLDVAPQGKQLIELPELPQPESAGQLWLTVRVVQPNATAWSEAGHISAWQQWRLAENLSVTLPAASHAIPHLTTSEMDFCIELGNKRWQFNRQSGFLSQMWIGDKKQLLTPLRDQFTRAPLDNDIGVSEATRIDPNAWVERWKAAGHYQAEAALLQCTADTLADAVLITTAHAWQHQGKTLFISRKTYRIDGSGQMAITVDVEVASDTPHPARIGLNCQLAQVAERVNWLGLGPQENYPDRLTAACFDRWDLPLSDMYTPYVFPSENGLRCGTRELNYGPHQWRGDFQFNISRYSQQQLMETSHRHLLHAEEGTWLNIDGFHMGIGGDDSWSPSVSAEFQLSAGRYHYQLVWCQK
T4 sequence (P61956 whole entry): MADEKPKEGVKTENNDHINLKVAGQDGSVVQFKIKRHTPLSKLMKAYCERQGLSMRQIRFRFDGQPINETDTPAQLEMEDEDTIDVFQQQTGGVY
T6 sequence (P65502 whole entry): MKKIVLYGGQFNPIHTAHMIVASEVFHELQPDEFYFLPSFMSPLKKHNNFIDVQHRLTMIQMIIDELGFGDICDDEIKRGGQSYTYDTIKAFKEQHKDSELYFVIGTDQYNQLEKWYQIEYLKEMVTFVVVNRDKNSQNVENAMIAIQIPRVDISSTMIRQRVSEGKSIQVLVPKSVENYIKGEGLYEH
Chain of DNA dC->dU-editing enzyme APOBEC-3A (P31941 whole entry): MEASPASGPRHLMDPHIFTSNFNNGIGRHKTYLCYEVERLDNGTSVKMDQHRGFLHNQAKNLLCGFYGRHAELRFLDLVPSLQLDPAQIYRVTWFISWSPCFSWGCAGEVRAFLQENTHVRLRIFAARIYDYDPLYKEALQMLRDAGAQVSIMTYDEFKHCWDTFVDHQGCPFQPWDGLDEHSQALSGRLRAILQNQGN
Chain of Complement C1s subcomponent (P09871 16-437 limits assumed): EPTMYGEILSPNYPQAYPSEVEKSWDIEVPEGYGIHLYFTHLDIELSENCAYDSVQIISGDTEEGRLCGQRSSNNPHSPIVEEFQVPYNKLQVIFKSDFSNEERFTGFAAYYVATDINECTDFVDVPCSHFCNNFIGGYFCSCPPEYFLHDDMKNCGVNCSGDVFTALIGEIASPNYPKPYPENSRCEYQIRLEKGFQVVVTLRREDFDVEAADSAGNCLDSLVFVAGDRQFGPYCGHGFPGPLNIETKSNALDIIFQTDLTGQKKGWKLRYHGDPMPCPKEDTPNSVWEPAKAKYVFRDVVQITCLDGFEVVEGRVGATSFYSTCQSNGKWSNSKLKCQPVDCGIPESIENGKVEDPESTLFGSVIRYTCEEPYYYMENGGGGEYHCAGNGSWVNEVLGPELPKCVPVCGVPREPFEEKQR
Chain of Complement C1s subcomponent (P09871 438-688 limits assumed): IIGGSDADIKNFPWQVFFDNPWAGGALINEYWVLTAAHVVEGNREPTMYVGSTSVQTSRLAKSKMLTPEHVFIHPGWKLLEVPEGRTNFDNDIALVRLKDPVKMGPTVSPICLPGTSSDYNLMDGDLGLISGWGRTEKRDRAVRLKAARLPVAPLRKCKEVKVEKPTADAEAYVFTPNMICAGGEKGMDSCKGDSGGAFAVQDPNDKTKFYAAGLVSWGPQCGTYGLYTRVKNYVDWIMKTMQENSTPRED
Chain of Nucleotide-binding oligomerization domain-containing protein 2 (Q9HC29 whole entry, the tested form may be a part): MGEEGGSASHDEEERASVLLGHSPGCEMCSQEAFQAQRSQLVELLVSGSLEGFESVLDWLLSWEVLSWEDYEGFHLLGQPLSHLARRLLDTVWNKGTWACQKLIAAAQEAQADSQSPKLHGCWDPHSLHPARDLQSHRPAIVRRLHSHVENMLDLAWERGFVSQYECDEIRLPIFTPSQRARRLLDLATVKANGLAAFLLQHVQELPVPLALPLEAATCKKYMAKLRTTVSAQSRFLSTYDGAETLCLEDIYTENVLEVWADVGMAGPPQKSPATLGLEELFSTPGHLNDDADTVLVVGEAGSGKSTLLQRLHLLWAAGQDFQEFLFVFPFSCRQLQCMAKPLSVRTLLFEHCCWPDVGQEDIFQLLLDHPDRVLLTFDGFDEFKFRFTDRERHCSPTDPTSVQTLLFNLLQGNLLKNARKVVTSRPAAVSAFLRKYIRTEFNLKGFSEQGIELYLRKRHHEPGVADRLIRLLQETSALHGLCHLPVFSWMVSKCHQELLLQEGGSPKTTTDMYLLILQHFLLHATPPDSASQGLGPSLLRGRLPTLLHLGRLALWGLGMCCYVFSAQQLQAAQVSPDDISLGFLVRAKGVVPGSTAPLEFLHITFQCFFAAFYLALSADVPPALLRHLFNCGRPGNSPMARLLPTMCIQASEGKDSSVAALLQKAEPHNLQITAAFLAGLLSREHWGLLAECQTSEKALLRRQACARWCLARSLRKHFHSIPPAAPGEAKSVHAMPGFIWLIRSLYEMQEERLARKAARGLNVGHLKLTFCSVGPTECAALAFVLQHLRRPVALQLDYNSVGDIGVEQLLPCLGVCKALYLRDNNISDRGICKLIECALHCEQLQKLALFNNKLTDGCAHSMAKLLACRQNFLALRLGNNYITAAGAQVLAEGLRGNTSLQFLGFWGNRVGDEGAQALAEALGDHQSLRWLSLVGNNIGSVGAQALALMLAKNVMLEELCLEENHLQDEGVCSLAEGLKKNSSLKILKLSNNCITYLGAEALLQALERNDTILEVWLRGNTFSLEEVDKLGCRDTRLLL
Chain of Glutathione S-transferase omega-1 (P78417 whole entry): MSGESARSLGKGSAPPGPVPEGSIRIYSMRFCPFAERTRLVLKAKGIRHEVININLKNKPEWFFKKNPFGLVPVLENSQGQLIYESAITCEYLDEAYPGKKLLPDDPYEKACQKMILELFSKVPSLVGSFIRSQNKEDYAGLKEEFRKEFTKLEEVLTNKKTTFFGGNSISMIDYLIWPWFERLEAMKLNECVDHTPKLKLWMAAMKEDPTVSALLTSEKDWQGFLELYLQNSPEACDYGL
Chain of DNA dC->dU-editing enzyme APOBEC-3G (Q9HC16 whole entry): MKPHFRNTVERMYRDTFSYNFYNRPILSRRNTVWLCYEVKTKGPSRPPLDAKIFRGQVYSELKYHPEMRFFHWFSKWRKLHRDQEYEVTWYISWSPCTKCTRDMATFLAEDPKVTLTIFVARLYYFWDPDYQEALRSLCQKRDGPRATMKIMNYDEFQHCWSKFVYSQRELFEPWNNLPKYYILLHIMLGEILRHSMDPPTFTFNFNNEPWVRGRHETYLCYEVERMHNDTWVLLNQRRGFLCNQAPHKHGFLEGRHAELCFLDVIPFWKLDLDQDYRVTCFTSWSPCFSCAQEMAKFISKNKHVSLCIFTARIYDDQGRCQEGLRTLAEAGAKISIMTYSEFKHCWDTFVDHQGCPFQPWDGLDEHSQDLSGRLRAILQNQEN

SMILES: CCOc1ccc(NC(=O)Nc2cccnc2)cc1
- EC50 [1]: 14.3 µM (active)

SMILES: COC(=O)c1ncccc1OCCOc1ccc(Cl)cc1Cl
- EC50 [2]: > 50 µM (inactive)

SMILES: N#CC(C#N)=C1C=CC=CN1/C(=C\c1ccco1)C(=O)c1ccc(-c2ccccc2)cc1
- EC50 [3]: 4.69 µM (active)
- IC50 [4]: 16.1 µM (active)
- EC50 (Beta-galactosidase [5]): > 31.5 µM (inactive)
- EC50 [6]: 4.81 µM (active)
- IC50 [7]: > 32 µM
- IC50 [8]: 0.945 µM (active)

SMILES: O=C(c1csc2c1CCCC2)n1cccn1
- IC50 [9]: > 50 µM (not active)
- IC50 (Coagulation factor XII): 5.39 µM (active)

SMILES: O=C(COc1ccc(Cl)cc1)Nc1nnc(-c2ccc(F)cc2)o1
- EC50 [10]: 1.8 µM (active)

SMILES: CC(/C=N/n1c(S)nnc1-c1ccco1)=C\c1ccco1
- IC50 [11]: > 100 µM (inactive)
- IC50 [12]: 2.62 µM (active)

SMILES: CCOc1ccc(C=NNc2ccc(S(=O)(=O)Nc3ccccc3C(=O)O)cc2[N+](=O)[O-])cc1
- IC50 (Beta-galactosidase [13]): > 66.6 µM (inactive)
- IC50 [14]: 5.78 µM (active)
- IC50 [15]: 3.67 µM (active)
- IC50 [16]: 4.41 µM (active)
- IC50 [17]: 7.56 µM (active)
- IC50 [18]: 15.6 µM (active)
- IC50 [19]: > 66 µM (inactive)
- IC50 [20]: 51.3 µM (inactive)

SMILES: Cc1cc(NC2CCCCC2)nc(NCc2ccccc2)n1
- EC50 [21]: 1.61 µM (active)
- EC50 [22]: 8.62 µM (active)
- CC50 [23]: 12.9 µM (active)
- CC50 [24]: 16.1 µM (active)
- CC50 [25]: > 20 µM (active)
- IC50 (cells): 10.7 µM (active)
- AC50 (INS1): 2.83 µM (active)

SMILES: CCc1nc(SCC(=O)N2CCN(c3ccccc3)CC2)c2oc3ccccc3c2n1
- EC50 (HEK293 [26]): 4.73 µM (active)
- IC50 (HEK293 [27]): 17.7 µM (active)
- EC50 [28]: > 20 µM (inactive)
- IC50 (HEK293 [29]): 5.63 µM (inactive)
- IC50 (HEK293 [30]): > 20 µM (inactive)
- AC50 [31]: 2 µM (active)
- EC50 (Protein RecA): > 380 µM (inactive)

SMILES: C#CCN(CCCN(C(=O)CCl)c1ccc([N+](=O)[O-])cc1)C(=O)C(F)(F)F
- IC50 [32]: 0.023 µM (active)

SMILES: COC(=O)c1cc(Cl)ccc1NC(=O)c1ccc(OC)cc1
- IC50 (Hexokinase): > 25 µM (inactive)

Source: ChEMBL document CHEMBL1201862, “PubChem BioAssay data set” (2004)
